How the values were obtained:
NMDAR [1] = target: T1, NMDAR (Mus musculus, UniProt P35436+P35438+Q01097); experiment: Coimmunoprecipitation of tau and NMDAR with anti-tau antibody (TauC); assay type: binding; conditions: tau knockout brain slice exposed to tau oligomer sample, IP: TauC, western blot anti-NR1
T1 construct: from tissue
Description: Whether or not the tau oligomers directly bind and interact with NMDARs was tested by the coimmunoprecipitation. The tau-knockout-brain slice specimens exposed to the tau oligomer sample prepared by the procedure of the above (2-1) and (2-2) was homogenized in 50-fold volume of the lysis buffer (4 mM of HEPES, 2 mM of EGTA, 0.32 M of sucrose, 1% Protease Inhibitor Cocktail, 1% Phosphatase Inhibitor Cocktail (Nacalai Tesque Inc., #07575-51)) and was centrifuged at 4° C., 12,000×g for 15 minutes to thereby collect pellets. The obtained pellets were dissolved in a 0.1% Triton X-100/TBS solution (25 mM of Tris-HCl, 150 mM of NaCl, 1 mM of EDTA, 1% NP-40, 5% glycerol, 0.1% Triton X-100, pH 7.4) and the resultant was used as a membrane protein solution. Coimmunoprecipitation on the obtained membrane protein solution was carried out by using an anti-tau antibody (TauC) (Dako, #A0024) (1:2000 dilution) and Pierce Direct Magnetic IP/Co-IP Kit (Thermo Fisher Scientific, #88828), in accordance with the recommended protocol by the kit. The collected coimmunoprecipitation samples were electrophoresed and then NMDAR was detected by the western blot. The antibody used was an anti-NR1 subunit antibody (Merck Millipore, #MAN363) (1:2000 dilution).

NT2-N cells = experiment: Adhesion activity of tau oligomers to NT2-N cell surface (fluorescence microscopy); assay type: cell-based, human; conditions: on ice 30 minutes, no membrane permeabilization
Description: Cal-520 AM was loaded to the NT2-N cells prepared in the above (4-1) by the procedure of the above (4-2), exposed to the tau oligomer sample (10 μl/ml) prepared in the above (1-3) and incubated on ice for 30 minutes. Subsequently, the cells were washed 3 times with DPBS(−) (137 mM of NaCl, 2.68 mM of KCl, 1.47 mM of KH2PO4, 8.06 mM of Na2HPO4) and fixed with 4% paraformaldehyde at room temperature for 15 minutes. After thorough washing with DPBS(−) (10 minutes×3 times), blocking was done with 1% BSA and 3% donkey serum/DPBS for 30 minutes. Then, the anti-phosphorylated tau antibody (anti-pTau (paired pS409, pS412, pS413), AnaSpec, #AS-55416) (1:1500 dilution) as the primary antibody was reacted at room temperature for 1 hour, and Alexa594-labelled anti-mouse IgG (Jackson Immuno Research, #711-585-152) (1:1500 dilution) as a secondary antibody was reacted at room temperature for 30 minutes, to thereby carry out immunostaining. The stained cells were observed using a fluorescence microscope (BZ-X710, Keyence Corporation).
The HT-tau oligomer sample prepared in the above (1-4), instead of the tau oligomer sample prepared in the above (1-3), was exposed to the NT2-N cells by the same procedure as in the above (5-1). After thorough washing, fluorescence microscopic observation was carried out.

NMDAR [2] = target: T1, NMDAR; experiment: Pull-down assay of HT-tau oligomer with membrane protein of tau knockout mouse brain; assay type: binding; conditions: HT-tau oligomers immobilized on HaloTag beads, western blot anti-NR1
Description: Whether or not the tau oligomer and NMDAR directly bind and interact was confirmed by a pull-down assay using the HT-tau oligomer. Magne™ HaloTag beads (Promega Corporation, #G728A) (50 mg) were added to the HT-tau oligomer sample (100 μl) prepared in the above (1-4), and a binding reaction was carried out at 4° C. for 12 hours to thereby immobilize the HT-tau oligomers on the beads. Additionally, brain slice specimens were prepared from tau knockout mice (B6.129X1-Mapt^tm1Hnd/J, Jackson Laboratory) by the same procedure as in the above (2-1) and were homogenized in 50-fold volume of the lysis buffer (4 mM of HEPES, 2 mM of EGTA, 0.32 M of sucrose, 1% Protease Inhibitor Cocktail, 1% Phosphatase Inhibitor Cocktail (Nacalai Tesque Inc., #07575-51)), and the lysate was centrifuged at 4° C., 12,000×g for 15 minutes to thereby collect pellets. The obtained pellets were dissolved in a 2% cholic acid or 1% deoxycholate/TBS solution (25 mM of Tris-HCl, 150 mM of NaCl, pH 7.4) and the resultant was used as a membrane protein solution. […] The obtained tau oligomer-membrane protein complexes were applied to SDS-PAGE electrophoresis, and NMDARs were detected by the western blot. […]

membrane protein (NMDAR) = experiment: Membrane protein-based sandwich ELISA; assay type: binding, mouse
Description: Pellets of the membrane protein obtained from tau knockout brain by the procedure of the above (7-1) were dissolved in 2% cholic acid or 1% deoxycholate/buffer (50 mM of HEPES, 150 mM of NaCl, pH 7.4), and the solution was centrifuged at 4° C., 150,000×g for 30 minutes to thereby collect the supernatant to use as a membrane protein solution. The obtained membrane protein solution was applied to an ELISA plate (Sumitomo Bakelite Co., Ltd., MS-8596F) and incubated at 4° C. for 60 minutes to thereby coat the plate with the membrane protein. After washing with wash solution (0.004 to 0.008% MNG-3, 50 mM of HEPES, pH 7.4), blocking was done by adding 1% FBS-containing wash solution and incubating at 4° C. for 60 minutes. The solvent of the HT-tau oligomer sample prepared in the above (1-4) was replaced with the wash solution using a protein concentrator (10K MWCO, Pierce, 88526) to thereby prepare a tau oligomer solution of 10^−16 to 10^−6 g/ml. These solutions were applied to the plate and incubated at 4° C. for 15 to 60 minutes. Then, the plate was washed thoroughly with the wash solution and a 5% skim milk-containing wash solution was added, followed by incubating at room temperature for 30 minutes to thereby block the protein. After washing using the wash solution, an anti-HaloTag antibody/wash solution (1:1000 dilution) was added and incubated at room temperature for 30 minutes. Subsequently, the plate was washed with the wash solution, an HRP-labelled secondary antibody/wash solution (Invitrogen, A27036) (1:5000 dilution) was added and incubated at room temperature for 30 minutes. Then, chromogenic reactions were carried out using an Ultra TMB solution (Thermo Fisher Scientific, 34028) to detect the tau oligomers bound to the membrane protein.

T1 sequence (P35436 23-1464, other chains not shown): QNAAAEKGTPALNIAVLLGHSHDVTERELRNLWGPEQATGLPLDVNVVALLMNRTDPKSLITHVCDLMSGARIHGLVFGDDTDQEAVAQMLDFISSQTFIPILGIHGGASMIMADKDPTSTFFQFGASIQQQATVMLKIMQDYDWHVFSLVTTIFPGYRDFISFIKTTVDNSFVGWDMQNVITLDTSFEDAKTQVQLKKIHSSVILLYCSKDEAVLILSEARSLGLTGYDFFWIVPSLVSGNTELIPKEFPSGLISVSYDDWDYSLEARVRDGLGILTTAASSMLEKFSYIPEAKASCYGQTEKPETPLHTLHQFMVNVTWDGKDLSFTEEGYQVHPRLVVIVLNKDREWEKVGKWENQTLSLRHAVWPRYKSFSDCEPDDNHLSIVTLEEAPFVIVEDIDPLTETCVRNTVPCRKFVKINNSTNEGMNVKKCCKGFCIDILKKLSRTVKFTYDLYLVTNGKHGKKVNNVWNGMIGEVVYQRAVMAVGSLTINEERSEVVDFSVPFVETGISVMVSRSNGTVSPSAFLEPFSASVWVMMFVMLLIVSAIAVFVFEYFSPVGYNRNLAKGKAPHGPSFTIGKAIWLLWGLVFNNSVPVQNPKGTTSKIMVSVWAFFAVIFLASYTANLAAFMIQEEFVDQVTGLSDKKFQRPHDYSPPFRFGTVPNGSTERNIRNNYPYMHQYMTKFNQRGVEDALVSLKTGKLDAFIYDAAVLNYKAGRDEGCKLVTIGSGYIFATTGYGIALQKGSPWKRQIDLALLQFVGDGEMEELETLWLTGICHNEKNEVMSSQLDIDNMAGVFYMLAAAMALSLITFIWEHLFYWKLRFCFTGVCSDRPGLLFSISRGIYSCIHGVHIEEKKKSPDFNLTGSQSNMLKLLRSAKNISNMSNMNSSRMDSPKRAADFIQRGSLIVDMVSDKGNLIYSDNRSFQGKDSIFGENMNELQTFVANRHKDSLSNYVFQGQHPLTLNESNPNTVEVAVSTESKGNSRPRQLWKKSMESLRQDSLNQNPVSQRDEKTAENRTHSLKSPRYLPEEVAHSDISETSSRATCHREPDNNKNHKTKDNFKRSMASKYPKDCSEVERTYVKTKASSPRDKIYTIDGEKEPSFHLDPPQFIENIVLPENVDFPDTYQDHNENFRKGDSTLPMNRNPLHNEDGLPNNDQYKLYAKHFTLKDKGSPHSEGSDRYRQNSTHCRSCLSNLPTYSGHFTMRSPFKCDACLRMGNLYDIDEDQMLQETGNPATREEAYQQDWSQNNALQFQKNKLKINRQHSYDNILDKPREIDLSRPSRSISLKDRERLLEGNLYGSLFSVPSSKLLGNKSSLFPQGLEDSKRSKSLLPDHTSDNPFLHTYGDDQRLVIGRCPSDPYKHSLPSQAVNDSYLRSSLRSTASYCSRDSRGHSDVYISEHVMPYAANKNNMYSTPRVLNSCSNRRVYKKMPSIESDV
T1 sequence (Q01097 27-1482, other chains not shown): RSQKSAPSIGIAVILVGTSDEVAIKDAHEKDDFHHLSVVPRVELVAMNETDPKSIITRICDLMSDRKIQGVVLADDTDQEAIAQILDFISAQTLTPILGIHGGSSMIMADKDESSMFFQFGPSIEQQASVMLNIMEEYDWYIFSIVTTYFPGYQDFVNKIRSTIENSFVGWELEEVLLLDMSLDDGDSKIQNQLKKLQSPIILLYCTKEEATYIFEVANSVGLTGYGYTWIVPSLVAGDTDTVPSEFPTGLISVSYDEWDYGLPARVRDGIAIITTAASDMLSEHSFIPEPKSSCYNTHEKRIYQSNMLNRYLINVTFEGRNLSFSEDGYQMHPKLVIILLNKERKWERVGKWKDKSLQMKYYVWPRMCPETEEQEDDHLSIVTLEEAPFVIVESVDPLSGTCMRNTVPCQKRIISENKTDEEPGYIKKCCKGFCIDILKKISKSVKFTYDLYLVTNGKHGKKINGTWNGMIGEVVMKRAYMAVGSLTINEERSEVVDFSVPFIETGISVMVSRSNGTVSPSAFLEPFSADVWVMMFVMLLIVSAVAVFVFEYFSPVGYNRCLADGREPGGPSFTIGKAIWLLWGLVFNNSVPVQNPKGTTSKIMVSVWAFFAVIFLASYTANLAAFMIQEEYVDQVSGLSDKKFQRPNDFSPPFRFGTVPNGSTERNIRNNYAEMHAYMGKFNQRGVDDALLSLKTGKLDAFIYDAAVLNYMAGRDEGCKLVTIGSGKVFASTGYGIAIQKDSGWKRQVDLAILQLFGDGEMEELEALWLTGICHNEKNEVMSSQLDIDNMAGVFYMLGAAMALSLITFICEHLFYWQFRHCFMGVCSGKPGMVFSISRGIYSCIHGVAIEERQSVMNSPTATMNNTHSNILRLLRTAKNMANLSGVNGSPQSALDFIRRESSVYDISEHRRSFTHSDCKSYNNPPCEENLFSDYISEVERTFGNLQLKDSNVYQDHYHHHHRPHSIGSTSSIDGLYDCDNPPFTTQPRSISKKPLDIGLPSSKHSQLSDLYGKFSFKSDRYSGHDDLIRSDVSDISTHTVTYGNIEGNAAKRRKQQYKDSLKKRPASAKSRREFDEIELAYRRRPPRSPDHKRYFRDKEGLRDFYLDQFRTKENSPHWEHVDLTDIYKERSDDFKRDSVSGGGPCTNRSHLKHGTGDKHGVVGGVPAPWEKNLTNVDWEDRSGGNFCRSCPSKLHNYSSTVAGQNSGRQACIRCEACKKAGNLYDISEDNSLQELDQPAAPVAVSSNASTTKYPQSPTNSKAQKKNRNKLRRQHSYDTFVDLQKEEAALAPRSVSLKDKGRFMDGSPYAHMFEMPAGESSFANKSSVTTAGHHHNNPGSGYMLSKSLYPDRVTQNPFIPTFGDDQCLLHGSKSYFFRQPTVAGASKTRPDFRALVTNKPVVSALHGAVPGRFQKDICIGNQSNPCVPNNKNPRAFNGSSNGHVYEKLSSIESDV

binding of NMDAR in pull-down assay (NMDAR [2]): directly bound
binding of the tau oligomer to membrane protein (membrane protein (NMDAR); tau oligomer solution of 10^−11 g/ml or lower): detected
Substance: tau oligomer: polymer of human tau 2N4R monomers, polymerized with mouse brain extract and ATP, collected as pellets
coimmunoprecipitation of NR1 subunit with tau (NMDAR [1]): clear band of the NR1 subunits was detected
adhesion to the cell surface (NT2-N cells): adhered in a patchy pattern
amount of tau oligomer bound to membrane protein (membrane protein (NMDAR); tau oligomer solution of 10^−8 g/ml or higher): increased in a concentration-dependent manner

Source: patent publication US20210341448A1, “SCREENING METHOD FOR THERAPEUTIC DRUG OR PROPHYLACTIC DRUG FOR TAUOPATHY AND DIAGNOSTIC METHOD FOR TAUOPATHY” (National Center for Geriatrics and Gerontology, priority 2018, published 2021)
